This note sets out measurements from paper PMC5496853, “Dual activation of neuronal G protein-gated inwardly rectifying potassium (GIRK) channels by cholesterol and alcohol” (Scientific Reports, 2017).

The target in experiment [1] is T1, GIRK2 (Mus musculus, UniProt P48542).
T1 construct: gene Kcnj6; amino acids 52-380
T1 sequence (P48542 52-380): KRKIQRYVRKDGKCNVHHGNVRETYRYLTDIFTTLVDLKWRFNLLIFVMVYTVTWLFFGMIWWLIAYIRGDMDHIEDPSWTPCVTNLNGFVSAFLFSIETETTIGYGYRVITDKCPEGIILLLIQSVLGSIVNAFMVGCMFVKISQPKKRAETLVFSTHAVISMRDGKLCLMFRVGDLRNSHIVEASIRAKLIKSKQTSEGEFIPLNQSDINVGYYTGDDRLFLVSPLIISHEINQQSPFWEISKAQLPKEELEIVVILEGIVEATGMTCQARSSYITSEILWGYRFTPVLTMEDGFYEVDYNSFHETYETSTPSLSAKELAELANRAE
Put plainly: fluorescence (ACMA) K+ flux assay, purified channel reconstituted in liposomes. The class given is biochemical.

Experiment [2] deals with T1, GIRK2. The experiment can be described thus: fluorescence (ACMA) K+ flux assay, purified channel reconstituted in liposomes with brain PIP2. The class given is biochemical.

`CCCCCCCC(=O)OC[C@H](COP(=O)(O)O[C@@H]1[C@H](O)[C@H](O)[C@@H](OP(=O)(O)O)[C@H](OP(=O)(O)O)[C@H]1O)OC(=O)CCCCCCC` [diC8-PIP2] showed an EC50 in experiment [1] of 25.1 ± 3.3 µM. Turning to `CCO` [ethanol], the “fluorescence (ACMA) K+ flux assay, purified channel reconstituted in liposomes w” value in experiment [2] is recorded as greater than 20 mM.

What is called EC50 is the concentration needed to bring the measured effect to its halfway point. Read a low EC50 as an effect from little substance.
